Measurements from ChEMBL document CHEMBL5543136, “Discovery of Novel Heterotricyclic Compounds as DNA-Dependent Protein Kinase (DNA-PK) Inhibitors with Enhanced Chemosensitivity, Oral Bioavailability, and the Ability to Potentiate Cancer Immunotherapy” (J Med Chem, 2024).
Activity calls are given as the source filed them. The calls are words filed in the database; no cut-off is given here.

Key:
[1] = target: DNA-dependent protein kinase catalytic subunit (Homo sapiens, UniProt P78527); experiment: Inhibition of human full-length DNA-PK using EPPLSQEAFADLWKK as substrate incubated for 60 mins in presence of ATP by ADP-Glo kinase assay
Jurkat [2] = experiment: Synergistic antiproliferative activity against human Jurkat cells assessed as reduction in cell viability incubated for 48 hrs in presence of doxorubicin by CCK-8 assay; type: functional, cell-based
Jurkat [3] = experiment: Antiproliferative activity against human Jurkat cells assessed as reduction in cell viability incubated for 48 hrs by CCK-8 assay; type: functional, cell-based
CT26 [4] = experiment: Antiproliferative activity against mouse CT26 cells assessed as reduction in cell viability incubated for 48 hrs by CCK-8 assay; type: functional, cell-based; conditions: CT26, 48 h
B16-F10 [5] = experiment: Synergistic antiproliferative activity against mouse B16-F10 cells assessed as reduction in cell viability incubated for 48 hrs in presence of doxorubicin by CCK-8 assay; type: functional, cell-based; conditions: B16-F10, 48 h
CT26 [6] = experiment: Synergistic antiproliferative activity against mouse CT26 cells assessed as reduction in cell viability incubated for 48 hrs in presence of doxorubicin by CCK-8 assay; type: functional, cell-based; conditions: CT26, 48 h
B16-F10 [7] = experiment: Antiproliferative activity against mouse B16-F10 cells assessed as reduction in cell viability incubated for 48 hrs by CCK-8 assay; type: functional, cell-based; conditions: B16-F10, 48 h
CT26 [8] = experiment: Antitumor activity against mouse CT26 cells implanted in BALB/c mouse assessed as tumor growth inhibition at 2.5 mg/kg, iv administered once a week for 21 days relative to control; type: functional; conditions: CT26, 504 h, time 21 day, read-out: TGI
B16-F10 [9] = experiment: Antiproliferative activity against mouse B16-F10 cells assessed as inhibition of cell growth incubated for 48 hrs by CCK-8 assay relative to control; type: functional
CT26 [10] = experiment: Antiproliferative activity against mouse CT26 cells assessed as inhibition of cell growth incubated for 48 hrs by CCK-8 assay relative to control; type: functional
Jurkat [11] = experiment: Antiproliferative activity against human Jurkat cells assessed as inhibition of cell growth incubated for 48 hrs by CCK-8 assay relative to control; type: functional
CT26 [12] = experiment: Antitumor activity against mouse CT26 cells implanted in BALB/c mouse assessed as tumor growth inhibition at 10 mg/kg, ip administered once daily for 21 days relative to control; type: functional; conditions: CT26, 504 h, time 21 day, read-out: TGI
[13] = Toxicity in BALB/c mouse implanted with mouse CT26 cells assessed as weight loss at 2.5 mg/kg, iv administered once a week for 21 days; type: organism-based; conditions: in vivo, 504 h, time 21 day
B16-F10 [14] = experiment: Antitumor activity against mouse B16-F10 cells implanted in C57BL/6 mouse assessed as tumor growth inhibition at 50 mg/kg, ip administered once daily for 13 days relative to control; type: functional; conditions: B16-F10, 312 h, time 13 day, read-out: TGI
[15] = Toxicity in C57BL/6 mouse implanted with mouse B16-F10 cells assessed as effect on body weight at 50 mg/kg, ip administered once daily for 13 days; type: organism-based; conditions: in vivo, 312 h, time 13 day
B16-F10 [16] = experiment: Immunomodulatory activity in mouse B16-F10 cells implanted in C57BL/6 mouse assessed as percentage of CD3 positive CD8 positive cells in tumor at 50 mg/kg, ip administered once daily for 13 days by flow cytometric analysis (reference value: 0.99%); type: functional; conditions: time 13 day
B16-F10 [17] = experiment: Immunomodulatory activity in mouse B16-F10 cells implanted in C57BL/6 mouse assessed as percentage of CD3 positive CD4 positive cells in tumor at 50 mg/kg, ip administered once daily for 13 days by flow cytometric analysis (reference value: 0.86%); type: functional; conditions: time 13 day
Cell membrane [18] = experiment: Induction of mitochondrial membrane potential loss in human Jurkat cells at 1 uM incubated for 24 hrs by JC-1 staining based flow cytometric analysis; type: cell membranes
HepG2 = experiment: Inhibition of DNA damage repair in human HepG2 cells assessed as reduction in gammaH2AX expression level at 20 uM by Western blot analysis; type: functional, cell-based
Jurkat [19] = experiment: Induction of cell cycle arrest in human Jurkat cells assessed as increase in G2/M phase cells at 1 uM incubated for 24 hrs in presence of doxorubicin by PI staining based flow cytometric analysis; type: functional
Jurkat [20] = experiment: Induction of cell cycle arrest in human Jurkat cells assessed as decrease in S phase cells at 1 uM incubated for 24 hrs in presence of doxorubicin by PI staining based flow cytometric analysis; type: functional
Cell membrane [21] = experiment: Induction of mitochondrial membrane potential loss in human Jurkat cells at 1 uM incubated for 24 hrs in presence of doxorubicin by JC-1 staining based flow cytometric analysis; type: cell membranes

DNA-dependent protein kinase catalytic subunit, sequence (P78527 whole entry): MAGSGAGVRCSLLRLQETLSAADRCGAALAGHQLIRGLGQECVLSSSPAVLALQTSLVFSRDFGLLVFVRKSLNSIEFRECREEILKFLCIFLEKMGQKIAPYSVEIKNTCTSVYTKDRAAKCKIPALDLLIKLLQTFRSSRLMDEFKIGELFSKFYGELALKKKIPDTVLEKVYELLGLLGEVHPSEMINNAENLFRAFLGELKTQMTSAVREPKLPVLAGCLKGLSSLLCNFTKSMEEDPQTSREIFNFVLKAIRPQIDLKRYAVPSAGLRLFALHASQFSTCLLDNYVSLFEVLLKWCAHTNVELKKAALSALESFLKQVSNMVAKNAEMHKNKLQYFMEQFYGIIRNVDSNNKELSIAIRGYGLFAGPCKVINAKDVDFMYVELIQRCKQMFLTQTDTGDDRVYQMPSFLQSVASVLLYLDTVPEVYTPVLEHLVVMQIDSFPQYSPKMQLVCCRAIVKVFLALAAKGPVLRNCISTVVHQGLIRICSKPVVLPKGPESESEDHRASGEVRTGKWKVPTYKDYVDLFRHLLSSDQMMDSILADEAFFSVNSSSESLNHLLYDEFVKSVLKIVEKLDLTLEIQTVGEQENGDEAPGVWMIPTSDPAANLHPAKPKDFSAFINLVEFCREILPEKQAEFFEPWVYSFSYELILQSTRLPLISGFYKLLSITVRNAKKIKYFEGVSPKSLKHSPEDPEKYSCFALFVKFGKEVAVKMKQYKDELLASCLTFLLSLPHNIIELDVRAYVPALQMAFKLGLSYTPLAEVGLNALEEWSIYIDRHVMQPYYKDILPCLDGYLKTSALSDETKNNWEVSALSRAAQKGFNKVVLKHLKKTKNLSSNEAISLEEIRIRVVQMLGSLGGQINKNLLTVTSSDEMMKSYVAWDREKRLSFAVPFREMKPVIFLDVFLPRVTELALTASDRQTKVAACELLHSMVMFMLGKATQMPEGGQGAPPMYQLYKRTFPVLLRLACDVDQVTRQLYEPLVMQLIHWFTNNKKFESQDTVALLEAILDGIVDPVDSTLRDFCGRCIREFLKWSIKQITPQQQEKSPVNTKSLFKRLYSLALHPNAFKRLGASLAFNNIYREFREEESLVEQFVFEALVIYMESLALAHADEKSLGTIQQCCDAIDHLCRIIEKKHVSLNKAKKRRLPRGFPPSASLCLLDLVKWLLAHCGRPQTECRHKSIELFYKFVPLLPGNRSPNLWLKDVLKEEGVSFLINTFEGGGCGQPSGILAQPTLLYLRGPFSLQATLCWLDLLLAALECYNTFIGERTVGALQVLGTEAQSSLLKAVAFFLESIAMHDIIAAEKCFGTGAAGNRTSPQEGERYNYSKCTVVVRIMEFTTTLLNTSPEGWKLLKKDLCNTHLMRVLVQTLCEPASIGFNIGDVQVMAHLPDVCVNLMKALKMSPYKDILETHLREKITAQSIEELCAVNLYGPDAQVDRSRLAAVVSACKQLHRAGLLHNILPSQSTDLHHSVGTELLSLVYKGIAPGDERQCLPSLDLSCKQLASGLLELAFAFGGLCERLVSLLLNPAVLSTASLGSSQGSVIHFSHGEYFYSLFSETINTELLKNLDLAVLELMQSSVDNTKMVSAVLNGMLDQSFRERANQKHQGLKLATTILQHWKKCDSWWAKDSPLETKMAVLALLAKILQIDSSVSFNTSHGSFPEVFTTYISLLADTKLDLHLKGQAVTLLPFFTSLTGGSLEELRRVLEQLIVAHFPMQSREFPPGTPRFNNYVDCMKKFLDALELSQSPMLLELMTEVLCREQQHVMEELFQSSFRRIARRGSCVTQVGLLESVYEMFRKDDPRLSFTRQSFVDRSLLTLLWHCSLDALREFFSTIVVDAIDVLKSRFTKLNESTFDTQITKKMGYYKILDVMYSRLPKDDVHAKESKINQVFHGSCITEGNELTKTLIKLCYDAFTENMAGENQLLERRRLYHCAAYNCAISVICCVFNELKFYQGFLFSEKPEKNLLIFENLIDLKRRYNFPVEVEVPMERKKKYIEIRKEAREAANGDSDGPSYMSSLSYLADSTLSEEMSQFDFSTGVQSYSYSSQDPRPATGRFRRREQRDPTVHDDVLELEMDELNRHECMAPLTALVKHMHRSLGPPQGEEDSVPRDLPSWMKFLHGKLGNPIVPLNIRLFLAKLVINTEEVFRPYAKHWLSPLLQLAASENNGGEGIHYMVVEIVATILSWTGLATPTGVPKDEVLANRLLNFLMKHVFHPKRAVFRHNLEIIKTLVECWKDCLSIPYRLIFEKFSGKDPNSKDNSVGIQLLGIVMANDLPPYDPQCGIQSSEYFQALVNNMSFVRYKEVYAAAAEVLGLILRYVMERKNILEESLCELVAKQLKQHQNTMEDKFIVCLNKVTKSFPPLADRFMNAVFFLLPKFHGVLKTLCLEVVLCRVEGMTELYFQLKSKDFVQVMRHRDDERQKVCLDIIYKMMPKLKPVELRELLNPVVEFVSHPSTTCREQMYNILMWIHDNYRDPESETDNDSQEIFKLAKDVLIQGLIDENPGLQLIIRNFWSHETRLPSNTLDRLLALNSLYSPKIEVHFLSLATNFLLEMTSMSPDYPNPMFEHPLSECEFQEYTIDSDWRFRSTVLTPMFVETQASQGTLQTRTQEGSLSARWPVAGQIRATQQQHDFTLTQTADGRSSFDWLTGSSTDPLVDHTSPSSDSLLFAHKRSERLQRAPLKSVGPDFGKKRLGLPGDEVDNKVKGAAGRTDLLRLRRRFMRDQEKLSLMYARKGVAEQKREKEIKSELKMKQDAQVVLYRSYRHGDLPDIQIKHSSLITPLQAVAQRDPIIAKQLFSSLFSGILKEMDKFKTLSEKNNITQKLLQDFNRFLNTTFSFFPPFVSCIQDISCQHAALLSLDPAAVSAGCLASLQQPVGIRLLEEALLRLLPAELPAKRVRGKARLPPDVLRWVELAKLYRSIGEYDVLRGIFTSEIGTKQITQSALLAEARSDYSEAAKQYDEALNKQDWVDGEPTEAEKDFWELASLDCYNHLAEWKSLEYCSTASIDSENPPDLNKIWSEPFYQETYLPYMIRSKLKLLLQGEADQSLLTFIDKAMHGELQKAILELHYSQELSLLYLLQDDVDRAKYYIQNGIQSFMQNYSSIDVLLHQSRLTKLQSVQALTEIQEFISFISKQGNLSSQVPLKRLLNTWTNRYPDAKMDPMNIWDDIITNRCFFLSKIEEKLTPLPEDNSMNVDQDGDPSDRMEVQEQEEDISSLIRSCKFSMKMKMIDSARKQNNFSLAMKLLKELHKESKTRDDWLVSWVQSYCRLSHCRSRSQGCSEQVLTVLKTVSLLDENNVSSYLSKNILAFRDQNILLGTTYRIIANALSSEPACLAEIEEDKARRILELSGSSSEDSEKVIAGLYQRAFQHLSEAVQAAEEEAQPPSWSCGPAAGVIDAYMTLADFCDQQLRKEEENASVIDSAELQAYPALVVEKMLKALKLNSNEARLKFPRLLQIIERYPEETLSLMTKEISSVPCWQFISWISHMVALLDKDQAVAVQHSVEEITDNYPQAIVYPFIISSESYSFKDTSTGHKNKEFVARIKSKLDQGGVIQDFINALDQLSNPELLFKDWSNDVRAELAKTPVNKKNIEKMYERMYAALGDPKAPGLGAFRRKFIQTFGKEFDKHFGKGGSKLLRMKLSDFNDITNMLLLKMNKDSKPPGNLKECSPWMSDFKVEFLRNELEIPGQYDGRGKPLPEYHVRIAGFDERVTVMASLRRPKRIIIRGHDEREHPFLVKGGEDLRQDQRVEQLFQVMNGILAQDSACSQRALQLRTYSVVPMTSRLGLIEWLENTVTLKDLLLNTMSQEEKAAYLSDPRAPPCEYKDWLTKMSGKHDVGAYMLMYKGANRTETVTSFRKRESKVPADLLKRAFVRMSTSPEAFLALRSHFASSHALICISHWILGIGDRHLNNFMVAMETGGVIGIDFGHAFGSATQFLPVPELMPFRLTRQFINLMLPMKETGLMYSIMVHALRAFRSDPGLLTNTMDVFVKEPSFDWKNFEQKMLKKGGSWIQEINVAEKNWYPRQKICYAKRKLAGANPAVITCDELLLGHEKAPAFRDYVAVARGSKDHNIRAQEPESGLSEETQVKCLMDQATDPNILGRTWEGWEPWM

Compound | IC50 [1] | IC50 (Jurkat [2]) | IC50 (Jurkat [3]) | IC50 (CT26 [4]) | IC50 (B16-F10 [5]) | IC50 (CT26 [6]) | IC50 (B16-F10 [7]) | other results
Cc1nnc2n1-c1cnc(Nc3ccc4nccnc4c3)nc1N(C1CCOCC1)C2 | 0.0518 µM | 0.17 µM | 0.9 µM | 19.4 µM | 26.9 µM | 9.7 µM | 26.9 µM | –
Cc1cnc(-c2cnn(C)c2)cc1Nc1ncc2c(n1)N(C1CCOCC1)Cc1nccn1-2 | 0.0294 µM | – | 15 µM | > 50 µM | – | – | > 50 µM | –
Cc1cnc(-c2cnn(C)c2)cc1Nc1ncc2c(n1)N(C1CCOCC1)Cc1nnc(C)n1-2 | 0.0214 µM | – | 5.7 µM | > 50 µM | – | – | > 50 µM | –
Cc1cc2cccnc2cc1Nc1ncc2c(n1)N(C1CCOCC1)Cc1nnc(C)n1-2 | 0.00062 µM | 0.05 µM | 0.8 µM | 5.2 µM | 6.5 µM | 1.5 µM | 12.9 µM | –
COc1cccc2c1C(=O)c1c(O)c3c(c(O)c1C2=O)C[C@@](O)(C(=O)CO)C[C@@H]3O[C@H]1C[C@H](N)[C@H](O)[C@H](C)O1 [DOXORUBICIN] | – | – | – | – | – | – | – | inhibition in vivo at 2.5 mg/kg (CT26 [8]): 25.9%; inhibition (INH) (B16-F10 [9]): 6.2%; inhibition (INH) (CT26 [10]): 9.75%; inhibition (INH) (Jurkat [11]): 23%; inhibition in vivo at 10 mg/kg (CT26 [12]): 30.8%; Activity [13]: Non-Toxic
Cc1c(COc2cc(OCc3cccc(C#N)c3)c(CN3CCCCC3C(=O)NCCNC(=O)CCCC[C@@H]3SC[C@@H]4NC(=O)N[C@@H]43)cc2Cl)cccc1-c1ccccc1 (stereo partly specified) | – | – | – | – | – | – | – | inhibition in vivo at 50 mg/kg (B16-F10 [14]): 48.2%; Activity [15]: Non-Toxic; Activity (B16-F10 [16]): 3.53%; Activity (B16-F10 [17]): 3.23%
COc1ccc(Nc2ncc3c(n2)N(C2CCOCC2)Cc2nccn2-3)c(C)c1 | 0.0089 µM | 0.51 µM | 1.4 µM | 31.2 µM | 21.9 µM | 15.3 µM | 41.8 µM | –
Cc1cc2ncnn2cc1Nc1ncc2c(n1)N(C1CCOCC1)Cc1nccn1-2 | 0.0036 µM | – | 9.4 µM | > 50 µM | – | – | > 50 µM | –
Cc1cc2ncnn2cc1Nc1ncc2c(n1)N(C1CCOCC1)CC(=O)N2C | – | 0.11 µM | 11.4 µM | 32.9 µM | 20.6 µM | 9.35 µM | 46.8 µM | Activity (Cell membrane [18]): inactive; inhibition (HepG2): Active
c1cnc2cc(Nc3ncc4c(n3)N(C3CCOCC3)Cc3nncn3-4)ccc2n1 | 0.0715 µM | – | 4.1 µM | 45.9 µM | – | – | > 50 µM | –
Cc1cc2ncnn2cc1Nc1ncc2c(n1)n(C1CCOCC1)c(=O)n2C [AZD-7648] | – | 0.09 µM | 12.3 µM | 18.8 µM | 11.4 µM | 6.74 µM | 33.6 µM | Activity (Cell membrane [18]): inactive; Activity (Jurkat [19]): Active; Activity (Jurkat [20]): Active; inhibition (HepG2): Active; Activity (Cell membrane [21]): Active
Cc1cc2ncnn2cc1Nc1ncc2c(n1)N(C1CCOCC1)Cc1nnc(C)n1-2 | 0.0084 µM | – | 25.2 µM | > 50 µM | – | – | > 50 µM | –
c1cn2c(n1)CN(C1CCOCC1)c1nc(Nc3ccc4nccnc4c3)ncc1-2 | 0.0628 µM | 0.21 µM | 0.8 µM | 27.6 µM | 20.9 µM | 14.9 µM | 31.9 µM | –
Cc1cc2cccnc2cc1Nc1ncc2c(n1)N(C1CCOCC1)Cc1nccn1-2 | 0.00035 µM | 0.04 µM | 0.7 µM | 8.9 µM | 7.5 µM | 3.1 µM | 19.5 µM | –
Cc1cc2ncnn2cc1Nc1ncc2c(n1)N(C1CCOCC1)Cc1nncn1-2 | 0.0056 µM | – | > 50 µM | > 50 µM | – | – | > 50 µM | –
COc1ccc(Nc2ncc3c(n2)N(C2CCOCC2)Cc2nnc(C)n2-3)c(C)c1 | 0.0153 µM | – | > 50 µM | > 50 µM | – | – | > 50 µM | –
Cc1cnc(-c2cnn(C)c2)cc1Nc1ncc2c(n1)N(C1CCOCC1)Cc1nncn1-2 | 0.0261 µM | – | > 50 µM | > 50 µM | – | – | > 50 µM | –
